Results from patent US20050124554A1, “Spermidine derivatives for the treatment of chronic neurodegenerative diseases” (priority 2002, published 2005).

Columns and labels:
[1] = test system: organotypic hippocampal slice cultures (CA1 pyramidal cell layer); assay: Experimental ischaemia (oxygen glucose deprivation), cell death by PI fluorescence; type: cell-based, Wistar rat
Description: Organotypic hippocampal slice cultures were prepared according to established methods (Pringle et al. (1997), Brain Res., 755, 36-46). In brief, Wistar rat pups (8-11 days old) were decapitated and the hippocampus rapidly dissected into ice-cold Gey's balanced salt solution (Gibco Life Technologies, Paisley, UK) supplemented with 4.5 mg ml^−1 glucose. Slices were separated and plated onto Millicell CM culture inserts (4 per well) and maintained at 37° C. and 5% CO2 for 14 days. Maintenance medium consisted of 25% heat-inactivated horse serum, 25% Hank's balanced salt solution (HBSS) and 50% minimum essential medium with added Earle's salts MM, ICN Biomedicals, Basingstoke, UK) supplemented with 1 mM glutamine and 4.5 mg ml^−1 glucose. Medium was changed every 3-4 days.
Experimental ischaemia or oxygen glucose deprivation was performed as described previously (Pringle et al. (1996), Stroke, 27, 2124-2130). Briefly, cultures were transferred to serum-free media (SFM, 75% MEM, 25% HDSS supplemented with 1 mM glutamine and 4.5 mg ml^−1 glucose) containing 5 μg ml^−1 of the fluorescent exclusion dye propidium iodide (PI). Cultures were allowed to equilibrate in SFM for 30 min prior to imaging, with or without L-Arg3,4. PI fluorescence was detected using a Leica inverted microscope as described below. Any cultures in which PI fluorescence was detected at this stage were excluded from further study. Ischaemia was induced by transferring cultures to glucose-free media (MEM with Earl's salts without glucose and supplemented with 1 mM glutamine) saturated with 95% N2 and 5% CO2. Culture plates (without lids) were then sealed into an airtight chamber (Billups-Rothenberg, Del Mar, Calif.) gassed with 95% N2 and 5% CO2 at 10 L min^−1 for 10 min before being sealed and placed at 37° C. for 50 min. At the end of the ischaemia, cultures were returned to normoxic SFM+PI, with or without compound at the indicated concentrations, and placed back in the incubator for 24 h.
Neuronal damage was assessed as described previously (Pringle et al. (1996), Stroke, 27, 2124-2130; Pringle et al. (1997), Brain Res., 755, 36-46). Light transmission images were captured prior to the induction of injury, and PI fluorescence images recorded at the end of the 24 h post-injury recovery period. All images were captured on an inverted Leica DM-IRBE epifluorescence microscope (Milton Keynes, UK) fitted with a 100 W Hg lamp and standard rhodamine optics (excitation 510-560 nm; dichroic mirror […]; emission>590 nm). Images were acquired with a 5×NA 0.12 lens and a cooled Hamamatsu digital camera and digitised at 12 bit resolution for analysis in OpenLab 2.1 (Improvision, Coventry, UK) running on a Macintosh G4/400. The area of the CA1 or CA3 cell layer was determined from the transmission image, and the area of PI fluorescence in that cell layers was measured using the density slice function within OpenLab. Neuronal damage was expressed as a percentage of the area in which PI fluorescence was detected above threshold within a cell layer divided by the total area of that cell layer. Protection was calculated as the difference between the damage for a given well and the average damage in untreated controls divided by the average damage in untreated controls. Groups were compared against corresponding control groups using the two tailed Student's t-test with significance indicated as * for P<0.05, and ** for P<0.01. Data is presented as mean±s.e.mean.

[2] = test system: acute hippocampal slices (CA1 pyramidal cell layer, Schaffer collateral stimulation); assay: Electrophysiology: evoked field responses / synaptic transmission; set-up: species or system Sprague-Dawley rats
Description: All animal procedures to produce acute hippocampal slices were approved by the Home Office. Male, 250 g, Sprague-Dawley rats were deeply anaesthetised with halothane and decapitated. The brain was quickly removed, and the hippocampi dissected out and then cut into 300 μm thick transverse slices on a vibratome (Leica, Milton Keynes, UK) in cold cutting solution (in mM: 189 sucrose, 2.5 KCl, 26 NaHCO3, 1.2 NaH2PO4, 10 glucose, 5 MgCl2, 0.1 CaCl2) equilibrated with 5% CO2, 95% O2. Slices were transferred to aCSF (in mM: 10 glucose, 125 NaCl, 5 KCl, 26 NaHCO3, 1 MgCl2, 1.25 NaH2PO4, 2 CaCl2, 10 sucrose) at room temperature, bubbled with 5% CO2 and 95% O2, for at least 1 h before use.
Slices were then transferred to a submerged perfusion chamber (2 ml volume) for the electrophysiological recordings and were perfused at 10 ml min^−1 at 25° C. with aCSF equilibrated with 5% CO2 and 95% O2, and allowed to equilibrate for 1 h before manipulations were started. Experimental compounds were applied by bath perfusion. L-Arg3,4 was applied at 300 μM and DNQX was applied at 10 μM final concentration. DNQX was diluted from a 40 mM stock in DMSO (final DMSO of 0.025%). The Schaffer collaterals of CA3 were stimulated at voltages from 0 to 30 V with a constant voltage stimulator (Digitimer, Hertfordshire, UK) via a twisted pair stimulating electrode of polyimide coated stainless steel wire (Plastics One, Roanoke, Va.). Field potential responses were recorded with an Axopatch 200B amplifier (Axon Instruments, Foster City, Calif.) in the fast current clamp mode via a 2M KCl filled glass electrode (2-5 MQ) in the CA1 pyramidal cell layer. Responses were filtered at 2 kHz, digitised at 20 kHz with a Digidata 1320A (Axon Instruments), and stored onto hard disk with Clampex 8.1 software (Axon Instruments) running on a Dell Pentium III PC. Data was analysed in Clampfit 8.1 (Axon Instruments).
Stimulus-response (S/R) curves were generated from stimuli from 0 to 30 V in 2 V increments. Bath perfusion of 300 μM L-Arg3,4 in aCSF was applied for 10 min with a sub-maximal stimulus applied every minute to monitor synaptic transmission. A second S/R curve was generated before the perfusion was switched back to plain aCSF. A sub-maximal stimulus was applied every minute during the 15 min wash period after which a third SIR curve was generated. Perfusion of 10 μM DNQX was then started until the response to the sub-maximal stimulus was completely eliminated which always occurred within 10 min. […] In Clampfit, S/R curves were fit to a sigmoidal function of the form: [formula] where R is the magnitude of the evoked response, Rmax is the maximum response, V50 is the voltage which produces a half maximal response, S is the stimulus voltage, and m is proportional to the slope of the linear region of the sigmoid. Data was compared by one way ANOVA.

[3] = 300 μM applied 0 min post-injury
[4] = 300 μM applied 10 min post-injury
[5] = 300 μM applied 60 min post-injury
[6] = during bath perfusion of 300 μM, n=6

In the case of `N=C(N)NCCCC(N)C(=O)NCCCNCCCCN` [L-Arg3,4, L-arginyl-3,4-spermidine], the damage ([1]; 300 nM post-injury, dose study) is reported as “did not reduce damage”, the damage ([1]; 3 μM post-injury, dose study) is reported as 19±5% and the protection ([1]; 3 μM post-injury, dose study) is reported as 43%. The damage ([1]; 30 μM post-injury, dose study) was 11±3%, the protection ([1]; 30 μM post-injury, dose study) was 67% and the “delay of administration post-ischaemia at which still neuroprotective (therapeutic window)” value ([1]; 300 μM) was “up to 60 min”. For the same compound, the damage [1, 3] was 23±3%, the protection [1, 3] was 40% and the damage [1, 4] was 15±2%. It also gave a protection [1, 4] of 59%, a damage ([1]; 300 μM applied 30 min post-injury) of 28±4% and a protection ([1]; 300 μM applied 30 min post-injury, not statistically significant) of 26%. It also gave a damage [1, 5] of 26±3%, a protection [1, 5] of 30% and a damage ([1]; 300 μM post-injury, dose study) of 23±3%. For the same compound, the protection ([1]; 300 μM post-injury, dose study) was 32%, the protection ([1]; 300 μM pre-, during, and post-ischaemia (PDP)) was 39% and the “neurodegeneration (PI area as % of cell layer)” value ([1]; 300 μM pre-, during, and post-ischaemia (PDP), 1 h ischaemia, 24 h) was 23±4%. The “effect on evoked responses” value ([2]; bath application, L-Arg3,4 300 μM, DNQX 10 μM) was “had no effect on evoked responses”, the “Rmax (maximum evoked response, S/R curve fit)” value [2, 6] was 2.71 ± 1.31 mV and the “V50 (voltage producing half maximal response)” value [2, 6] was 15.98 ± 5.12 V. The “m (proportional to slope of sigmoid)” value [2, 6] was 0.59 ± 0.48.
